Laboratory results from patent US12589143B2, “Human anti-PD-L1 peptide vaccines and methods of their use” (priority 2019, dated 2026).
Where no end group is shown, it is not given here.

What was measured:
[1] = target: T1, PD-1/PD-L1 interaction (Homo sapiens, UniProt Q9NZQ7); test: PD-1/PD-L1 blockade bioassay (Promega); type: cell-based; settings: antibodies from immunized rabbits, compared to Nivolumab and Atezolizumab
T1 construct: host or cells: PD-L1 aAPC/CHO-K1 cells and PD-1 effector cells
Protocol: The assay was performed following the manufacturer's protocol for the PD-1/PD-L1 blockade bioassay (Promega).
The bioluminescent cell-based PD-1/PD-L1 blockade bioassays provide a good option for rapid screening of therapeutic antibodies or other compounds developed to interfere with PD-1-signaling interaction. PD1/PD-L1 blockade assay was used to test the functionality of 3 anti-PD-L1 antibodies. It was observed that purified polyclonal anti-PD-L1 antibody from the rabbits was able to block PD1/PD-L1 interaction similar to commercial anti-human PD-L1 antibody (FIG. 12). […] In FIG. 12, we show the capacity of each of the PD-L1 vaccines to block the PD-1:PD-L1 interaction as compared to Nivolumab and Atezolizumab. Remarkably only PD-L1 130-147 antibodies were effective
The assay was performed following the manufacturer's protocol for the PD-1/PD-L1 blockade bioassay (Promega). In brief, 4×10^5 aAPC/CHO-K1 or PD-L1 aAPC/CHO-K1 cells were seeded into 96-well plates in RPMI-1640 with 10% FBS. After overnight culturing, the medium was aspirated, and serially diluted purified PD-L1 or PD-1 antibodies, as well as Nivolumab and Atezolizumab antibodies (as reference antibodies) were added. Next, PD-1 effector cells were co-cultured and plate was kept for 5 h at 37° C. in a humidified 5% CO2 incubator. Following mixing with Bio-Glo Reagent, the luminescence was measured with a luminescence plate reader, SpectraMax M3 plate reader (Molecular Devices).

[2] = tested on: D2F2 WT tumor cells; test: D2F2 WT tumor challenge in Balb/c mice; type: in vivo; settings: day 21 and day 28
Protocol: Balb/c mice 6-8 weeks old, were immunized with G1 and G2 mice were treated with anti-PD-1 mAb (29F.1A12) (G1) or anti-PD-L1 mAb (10F.9G2) (G2 or with MVF-PD-L1 vaccine constructs [PD-L1(92-110)(G3) PD-L1(130-147)(G4)] prior to tumor challenge. Similarly, G10, G11 and G12 are control groups and were not treated prior to tumor cell challenge. G13, G14 and G15 mice were immunized with 100 ug MVF-HER-2(266-296)+100 ug MVF-HER-2(597-626)+ISA720 per mouse for G13, 100 ug MVF-PD-1 (92-110)+100 ug MVF-HER-2(266-296)+100 ug MVF-HER-2(597-626)+ISA720 per mouse for G14 and 100 ug MVF-PD-L1 (130-147)+100 ug MVF-HER-2(266-296)+100 ug MVF-HER-2(597-626)+ISA720 per mouse for G15. The mice were immunized up to 4 times before tumor challenge. […] All the mice had been monitored at least twice per week, and the tumors were measured with calipers as data indicated.
The tumor volumes were measured by calipers and calculated by formula: (length×width2)/2. […] All the peptides immunized groups of mice are shown with less tumor burden than PBS group and mAbs treated groups as well.
G0, G1 and G2 are control groups, mice in these groups were not treated before tumor cells challenge. Following challenge with D2F2 WT tumor cells, G0 mice were treated with PBS (i.p.) twice per week start from day 2 post challenge served as negative control, G1 and G2 mice were treated with anti-PD-1 mAb (29F.1A12) or anti-PD-L1 mAb (10F.9G2), respectively. Treatment for G1 and G2 mouse groups was also started from day 2 post tumor challenge, with 100 ug administered/mouse twice a week. G1 and G2 served as positive control. […] All the mice had been monitored at least twice per week, and the tumors were measured with calipers as data indicated (FIG. 26).
Mice were immunized with designed peptides vaccines as descripted in FIG. 26, which indicated as 1Y, 2Y, 3Y and 4Y here and with 3 weeks apart. […] And the mice were monitor at least twice per week, and the tumors were measured as shown in the data figures.
The tumor volumes were measured by calipers and calculated by formula: (length×width2)/2. […]

[3] = tested on: HER-2 positive breast cancer; settings: patients with untreated HER-2 positive breast cancer; pertuzumab added to docetaxel and trastuzumab vs without; cited from earlier work

T1 sequence (Q9NZQ7 19-290): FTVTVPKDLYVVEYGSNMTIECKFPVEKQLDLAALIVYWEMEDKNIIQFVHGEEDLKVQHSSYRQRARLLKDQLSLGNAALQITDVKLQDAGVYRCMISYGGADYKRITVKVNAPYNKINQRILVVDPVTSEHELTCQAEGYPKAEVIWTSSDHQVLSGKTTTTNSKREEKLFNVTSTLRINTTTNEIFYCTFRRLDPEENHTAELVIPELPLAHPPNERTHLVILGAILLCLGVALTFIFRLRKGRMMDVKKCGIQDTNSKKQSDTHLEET

Substance	blocking of PD-1/PD-L1 interaction [1]	tumor volume [2]	overall survival [3] [months]	progression-free survival [3] [months]
MVF-PD-1(92-110) (KLLSLIKGVIVHRLEGVEDCRFRVTQLPNGRDFHMSV-NH2)	unable to block PD-1 and PD-L1	smaller tumor volume than PBS negative control group and both of mAbs positive control groups	–	–
pertuzumab	–	–	56.5	18.5
